The record followed here is US12668599B2, “Heterobifunctional compounds and methods of treating disease” (Halda Therapeutics OpCo, Inc., priority 2023, dated 2026).

Assay [1] has as its system VCaP cells. Kind of assay: Cellular growth inhibition assay for VCaP cells (CellTiter-Glo 2.0, 72 hours). Format: cell-based, human. Particulars: for GI50: CellTiter-Glo 2.0.
In assay [2] the test system is T-Rex 293 cell line SC3 cells having increased expression of androgen receptor protein due to exposure to doxycycline. In words: Cellular growth inhibition, T-Rex 293 SC3 cells with doxycycline-induced androgen receptor (CellTiter-Glo 2.0, 72 hours). Format: cell-based. To be noted: for GI50: T-Rex 293 SC3 cells with 10 ng/ml doxycycline (increased androgen receptor expression), 72 hours, CellTiter-Glo 2.0.

For assay [3], the system named is T-Rex 293 cell line SC3 cells lacking increased expression of androgen receptor protein. In words: Cellular growth inhibition, T-Rex 293 SC3 cells without doxycycline (CellTiter-Glo 2.0, 72 hours). Format: cell-based. Particulars: T-Rex 293 SC3 cells not exposed to doxycycline (no increased androgen receptor expression).
The subject of assay [4] is T47D cells. Kind of assay: Cellular growth inhibition assay for T47D cells (CellTiter-Glo 2.0, 72 hours). Format: cell-based, human. As to the method:
Exemplary compounds were tested for ability to inhibit the proliferation of T47D cells. T47D cells are a commercially available human breast cancer cell line.
T47D cells were purchased from American Type Cell Culture (ATCC Cat #HTB-133) and then seeded on poly-D-lysine coated, black clear-bottom 384-well plates at 3000/well in 25 μL Dulbecco's Modified Eagle Medium (DMEM) supplemented with 10% w/w Fetal bovine serum (FBS), 0.2 units/mL recombinant human insulin (Gibco Cat #12585014), and 1% w/w Pen-Strep. Pen-Strep is a commercially available mixture of penicillin G and streptomycin, which is used in mammalian cell culture media to prevent bacterial contamination. Dulbecco's Modified Eagle Medium (DMEM) supplemented with 10% w/w fetal bovine serum (FBS), 0.2 units/mL recombinant human insulin, and 1% w/w Pen-Strep is herein referred to as Treatment Medium. Following seeding of cells in the plates, the plates were spun at 300×g for 30 seconds, then equilibrated to room temperature for 30 minutes, and then deposited in a humidified tissue culture incubator maintained at 37° C. with 5% CO2.
At 24 hours after seeding of the cells, dilutions of test compound were prepared in DMSO and dissolved in Treatment Medium, to achieve a final DMSO concentration of 0.5% w/w, thereby providing the Test Compound Solution. A 25 μL aliquot of the Test Compound Solution was added to cells in the well plates. An equal volume of a solution containing DMSO and Treatment Medium was used as a negative control. Following treatment of cells with Test Compound Solution or said equal volume of a solution containing DMSO and Treatment Medium, the plates were spun at 300×g for 30 seconds, and then left in an incubator for 72 hours.
At the end of the treatment duration, cell viability was quantified with CellTiter-Glo 2.0 reagent (Promega Cat #G9243). For this purpose, plates were equilibrated to room temperature for 30 minutes, and then 25 μL of CellTiter-Glo 2.0 reagent was added to cells in the plate wells. Plates were then agitated on a shaker for two minutes at 500 rpm and subsequently incubated at room temperature for 10 minutes. Following incubation, the plates were spun at 3000×g for 30 seconds, then sealed with an optical adhesive cover, and luminescence readings were measured with an En Vision Plate Reader (Perkin Elmer).
Data was normalized using zero luminescence for baseline. A four-parameter non-linear regression curve fit was applied to dose-response data in GraphPad Prism data analysis software to determine the half-maximal growth inhibitory concentration (GI50) for each test compound.

SMILES strings stand for the structures. Where two headings read alike, the source gives them in different places.

With `COc1cc(O[C@H]2CC[C@H](NC(=O)c3ccc(N4CC5(CC(C#Cc6ccc(C7=N[C@@H](Cc8ncco8)c8nnc(C)n8-c8sc(C)c(C)c87)cc6)C5)C4)nn3)CC2)ccc1C#N` [Compound I-124, N-[(1r,4r)-4-(4-cyano-3-methoxy-phenoxy)cyclohexyl]-6-[6-[2-[4-[(9S)-4,5,13-trimethyl-9-(oxazol-2-ylmethyl)-3-thia-1,8,11,12-tetrazatricyclo[8.3.0.0^2,6]trideca-2 (6),4,7,10,12-pentaen-7-yl]phenyl]ethynyl]-2-azaspiro[3.3]heptan-2-yl]pyridazine-3-carboxamide], the “Ratio of GI50's” value was determined as 1 in assay [1] (GI50 of the top compound in the pair divided by GI50 of the lower compound) and 1 in assay [2] (GI50 of the top compound in the pair divided by GI50 of the lower compound, T-Rex 293 SC3 cells with doxycycline-induced androgen receptor). The GI50 in assay [1] (Homo sapiens, VCaP, 72 h) was < 500 nM; in assay [2] it was < 500 nM; in assay [3] (72 h), < 500 nM.
With `COc1cc(O[C@H]2CC[C@H](NC(=O)c3ccc(N4CCC5(CC4)CC(Cc4ccc(C6=N[C@@H](Cc7ncco7)c7nnc(C)n7-c7sc(C)c(C)c76)c(F)c4)C5)nn3)CC2)ccc1C#N` [Compound I-125, N-[4-(4-cyano-3-methoxy-phenoxy)cyclohexyl]-6-[2-[[3-fluoro-4-[(9S)-4,5,13-trimethyl-9-(oxazol-2-ylmethyl)-3-thia-1,8,11,12-tetrazatricyclo[8.3.0.0^2,6]trideca-2 (6),4,7,10,12-pentaen-7-yl]phenyl]methyl]-7-azaspiro[3.5]nonan-7-yl]pyridazine-3-carboxamide], the GI50 in assay [1] (Homo sapiens, VCaP, 72 h) is < 500 nM; in assay [2] it was < 500 nM; in assay [3] (72 h), < 500 nM.
As to `COc1cc(O[C@H]2CC[C@H](NC(=O)c3ccc(N4CCC5(CCN(c6ccc(C7=NC(Cc8ncco8)c8nnc(C)n8-c8sc(C)c(C)c87)cc6C(F)(F)F)CC5)C4)nn3)CC2)ccc1C#N` (stereo partly drawn) [Compound I-126], the concentration for 50% growth inhibition (GI50) in assay [1] (72 hours) was > 3000 nM; in assay [2], < 500 nM; in assay [3] it was > 3000 nM.
In the case of `COc1cc(O[C@H]2CC[C@H](NC(=O)c3ccc(N4CCC5(CC4)CC(Oc4ccc(C6=N[C@@H](Cc7ncco7)c7nnc(C)n7-c7sc(C)c(C)c76)c(F)c4)C5)nn3)CC2)ccc1C#N` [Compound I-128, N-[4-(4-cyano-3-methoxy-phenoxy)cyclohexyl]-6-[2-[3-fluoro-4-[(9S)-4,5,13-trimethyl-9-(oxazol-2-ylmethyl)-3-thia-1,8,11,12-tetrazatricyclo[8.3.0.0^2,6]trideca-2 (6),4,7,10,12-pentaen-7-yl]phenoxy]-7-azaspiro[3.5]nonan-7-yl]pyridazine-3-carboxamide], the GI50 was < 500 nM in assay [1] (Homo sapiens, VCaP, 72 h); < 500 nM in assay [2]; < 500 nM in assay [3] (72 h).
For `COc1cc(O[C@H]2CC[C@H](NC(=O)c3ccc(N4CCC5(CCN(c6ccc(C7=NC(Cc8ncco8)c8nnc(C)n8-c8sc(C)c(C)c87)cc6C(F)(F)F)CC5)C4)nn3)CC2)ccc1C#N` (stereo partly drawn) [Compound I-129], the GI50 in assay [1] (72 hours), in assay [2] and in assay [3] was < 500 nM in each case.
As to `COc1cc(O[C@H]2CC[C@H](NC(=O)c3ccc(N4CCC5(CC4)CC(Oc4ccc(C6=N[C@@H](Cc7ncco7)c7nnc(C)n7-c7sc(C)c(C)c76)cc4F)C5)nn3)CC2)ccc1C#N` [Compound I-133], the GI50 in assay [1] (Homo sapiens, VCaP, 72 h) was < 500 nM; in assay [2], < 500 nM; in assay [3] (72 h), < 500 nM.
With `COc1cc(O[C@H]2CC[C@H](NC(=O)c3ccc(N4CCC5(CCN(c6ccc(C7=NC(Cc8ncco8)c8nnc(C)n8-c8sc(C)c(C)c87)c(C(F)(F)F)c6)CC5)C4)nn3)CC2)ccc1C#N` (stereo partly drawn) [Compound I-136], the GI50 in assay [1] (72 hours) was > 3000 nM; in assay [2], < 500 nM; in assay [3] (72 h), > 3000 nM.
For `COc1cc(O[C@H]2CC[C@H](NC(=O)c3ccc(N4CCC5(CCN(c6ccc(C7=NC(Cc8ncco8)c8nnc(C)n8-c8sc(C)c(C)c87)c(C(F)(F)F)c6)CC5)C4)nn3)CC2)ccc1C#N` (stereo partly drawn) [Compound I-137], the GI50 is < 500 nM in assay [1] (72 hours), < 500 nM in assay [2] and > 3000 nM in assay [3].
Turning to `Cc1sc2c(c1C)C(c1ccc(OC3CC4(CCN(c5ncc(C(=O)N[C@H]6C(C)(C)[C@H](Oc7ccc(C#N)c(OC(F)(F)F)c7)C6(C)C)cn5)CC4)C3)cc1)=N[C@@H](Cc1ncco1)c1nnc(C)n1-2` [II-2], the GI50 in assay [4] (Homo sapiens, T47D, 72 h) was < 500 nM.
Regarding `COc1cc(O[C@H]2C(C)(C)[C@H](NC(=O)c3cnc(N4CCC(CC5CN(c6ccc(C7=N[C@@H](C)c8nnc(C)n8-c8sc(C)c(C)c87)cc6)C5)CC4)nc3)C2(C)C)ccc1C#N` [II-3], the GI50 in assay [4] (Homo sapiens, T47D, 72 h) was < 500 nM.
As to `COc1cc(O[C@H]2C(C)(C)[C@H](NC(=O)c3ccc(N4CCC5(CC4)CC(Cc4ccc(C6=N[C@@H](C)c7nnc(C)n7-c7sc(C)c(C)c76)cc4)C5)nc3)C2(C)C)ccc1C#N` [II-6], the GI50 in assay [4] (Homo sapiens, T47D, 72 h) is < 500 nM.
Turning to `COc1cc(O[C@H]2C(C)(C)[C@H](NC(=O)c3cnc(N4CCC5(CCC(c6ccc(C7=N[C@@H](C)c8nnc(C)n8-c8sc(C)c(C)c87)cc6)CC5)C4)nc3)C2(C)C)ccc1C#N` [II-8], the GI50 in assay [4] lay within 500 to 1500 nM.
In the case of `COc1cc(O[C@H]2C(C)(C)[C@H](NC(=O)c3cnc(N4CCC5(CC4)CC(Cc4ccc(C6=N[C@@H](Cc7ncco7)c7nnc(C)n7-c7sc(C)c(C)c76)c(F)c4)C5)nc3)C2(C)C)ccc1C#N` [II-13], the GI50 in assay [1] (Homo sapiens, VCaP, 72 h) was < 500 nM; in assay [2], < 500 nM; in assay [3] (72 h), < 500 nM.
Consider `COc1cc(O[C@H]2C(C)(C)[C@H](NC(=O)c3cnc(N4CCC5(CC4)CC(Oc4ccc(C6=N[C@H](Cc7ncco7)c7nnc(C)n7-c7sc(C)c(C)c76)cc4)C5)nc3)C2(C)C)ccc1C#N` [II-14], for which the GI50 in assay [1] (Homo sapiens, VCaP, 72 h) is > 3000 nM; in assay [2], < 500 nM; in assay [3] (72 h) it was > 3000 nM.
Take `CCc1csc2c1C(c1ccc(OC3CC4(CCN(c5ncc(C(=O)N[C@H]6C(C)(C)[C@H](Oc7ccc(C#N)c(OC)c7)C6(C)C)cn5)CC4)C3)cc1)=N[C@@H](Cc1ncco1)c1nnc(C)n1-2` [III-1, N-[(1r,3r)-3-(4-cyano-3-methoxy-phenoxy)-2,2,4,4-tetramethyl-cyclobutyl]-2-[2-[4-[(9S)-5-ethyl-13-methyl-9-(oxazol-2-ylmethyl)-3-thia-1,8,11,12-tetrazatricyclo[8.3.0.0^2,6]trideca-2 (6),4,7,10,12-pentaen-7-yl]phenoxy]-7-azaspiro[3.5]nonan-7-yl]pyrimidine-5-carboxamide]: the GI50 in assay [1] (Homo sapiens, VCaP, 72 h) was < 500 nM; in assay [2], < 500 nM; in assay [3] (72 h) it was 500 to 1500 nM.
Turning to `COc1cc(O[C@H]2C(C)(C)[C@H](NC(=O)c3cnc(N4CCC5(CC4)CC(Oc4ccc(C6=N[C@@H](Cc7ncco7)c7nnc(C)n7-c7sc(CO)c(C)c76)cc4)C5)nc3)C2(C)C)ccc1C#N` [III-2, N-[(1r,3r)-3-(4-cyano-3-methoxy-phenoxy)-2,2,4,4-tetramethyl-cyclobutyl]-2-[2-[4-[(9S)-4-(hydroxymethyl)-5,13-dimethyl-9-(oxazol-2-ylmethyl)-3-thia-1,8,11,12-tetrazatricyclo[8.3.0.0^2,6]trideca-2 (6),4,7,10,12-pentaen-7-yl]phenoxy]-7-azaspiro[3.5]nonan-7-yl]pyrimidine-5-carboxamide], the GI50 in assay [1] (Homo sapiens, VCaP, 72 h) was < 500 nM; in assay [2], < 500 nM; in assay [3] (72 h), < 500 nM.
With `COc1cc(O[C@H]2C(C)(C)[C@@H](NC(=O)c3cnc(N4CCC5(CC4)CC(Oc4ccc(C6=NC(Cc7ncco7)c7nnc(C)n7-c7sc(C)c(C)c76)cc4)C5)nc3)C2(C)C)ccc1C#N` (stereo partly drawn) [III-3, N-[(1r,3s)-3-(4-cyano-3-methoxy-phenoxy)-2,2,4,4-tetramethyl-cyclobutyl]-2-[2-[4-[4,5,13-trimethyl-9-(oxazol-2-ylmethyl)-3-thia-1,8,11,12-tetrazatricyclo[8.3.0.0^2,6]trideca-2 (6),4,7,10,12-pentaen-7-yl]phenoxy]-7-azaspiro[3.5]nonan-7-yl]pyrimidine-5-carboxamide], the GI50 was < 500 nM in assay [1] (Homo sapiens, VCaP, 72 h); < 500 nM in assay [2]; < 500 nM in assay [3] (72 h).
